Key:
[1] = system: Primary human coronary artery vascular smooth muscle cells; assay: VSMC osteogenic marker gene expression (qRT-PCR); assay type: cell-based; details: OS + 2.5 μM vs OS, 14 days
Experimental: Primary human coronary artery vascular smooth muscle cells, (VSMCs, ATCC, PCS-100-021) were cultured using vascular smooth muscle cell media and growth kit (ATCC, PCS-100-042). VSMCs (passage 4-6) were harvested using 0.05% trypsin-EDTA solution (Caisson Labs, TRL04) and seeded with a density of 26,320 cells.cm^-2 and incubated for 72 hours at 37° C., 5% CO2 with controlled humidity prior to treatment. […] OS media were supplemented with 10 mM β-glycerophosphate (Sigma, 13408-09-8), 0.1 mM L-ascorbic acid (Sigma, 113170-55-1), and 10 nM dexamethasone (Sigma, 50-02-2). To assess the role of EGFR inhibition, tyrphostin AG1478 (Millipore Sigma, T4182) was dissolved in vehicle (DMSO:Methanol, 1:1) and added to OS media to a final concentration of 2.5 μM. An equal volume of vehicle was added to the control and OS groups. […] On days 6, 13, 20, and 27 the media were replaced by an extracellular-vesicle-free (EV-free) media (ultracentrifuged for 15 hours at 100,000×g at 4° C. to remove background EVs common in the serum). After 24 hours, conditioned media were collected on days 7, 14, 21, and 28. […] To perform the quantitative real time polymerase chain reaction (qRT-PCR), Power SYBR Green RNA-to-CT 1-Step Kit (Applied Biosystems, 4391178) was used. […] The relative gene expression levels were calculated using comparative CT method, considering control groups as the reference. […]

CKD mice = assay: Chronic kidney disease and vascular calcification mouse model (OsteoSense calcium tracer in aorta); assay type: in vivo; details: for vascular calcification (calcium tracer OsteoSense visualization, aorta): daily oral gavage 10 mg/kg for two weeks, vs CKD vehicle, 10 mg/kg
Text: The in vivo study was approved by the Institutional Animal Care and Use Committee (IACUC) at Florida International University under protocol AN20-006 and conformed to current NIH guidelines. 8-week-old wild type C57BL/6J mice (n=38, 19 per biological sex) were fed an adenine-supplemented diet (0.2%, TestDiet, Richmond, Ind.) for 6 weeks to induce severe kidney injury. The mice then received a diet containing 1.8% phosphate (TestDiet, Richmond, Ind.) and 0.2% adenine for an additional two weeks to induce medial calcinosis.
Along with this calcifying diet, a group of mice (n=19) received daily tyrphostin AG1478 (10 mg/kg mouse, Millipore Sigma, T4182) via oral gavage. The remaining mice (n=19) received vehicle treatment (1% w/v, carboxymethylcellulose sodium salt, Sigma, C5678). For non-diseased controls, a third group of mice (n=12, 6 per biological sex) were fed a regular chow diet and received the vehicle for the final two weeks. During the oral gavage, animals were partially anesthetized using isoflurane (1%, Patterson Veterinary, 07-893-1389, in 2 L.min^−1 oxygen flow). All animals received a tail vein injection with the calcium tracer OsteoSense 680EX (80 nmol/kg mouse, PerkinElmer, NEV10020EX) 48 hours prior to euthanization. At study endpoint, mice were anesthetized with isoflurane (1%, in 2 L.min^−1 oxygen flow) followed by retro-orbital bleeding for blood collection. Mice were then immediately euthanized by laceration of the diaphragm before tissue collection. After resection, the aortas were imaged using a near-infrared scanner (LI-COR Odyssey) to visualize the vascular calcification burden. A custom MATLAB script quantified the total area of the calcium tracer, which was normalized to the total scanned aorta area.

COc1cc2ncnc(Nc3cccc(Cl)c3)c2cc1OC [AG1478, tyrphostin AG1478]
Gene expression of osteogenic marker ALPL in VSMCs ([1]; p=0.1): no significant differences | Gene expression of osteogenic marker RUNX2 in VSMCs ([1]; p=0.42): no significant differences | Quantification of the OsteoSense intensity (vascular calcification) (CKD mice; CKD mice, 10 mg/kg daily, two weeks, vs CKD, p≤0.001): significant reduction | vascular calcification (calcium tracer OsteoSense visualization, aorta) (CKD mice; CKD mice): reduced calcium burden | vascular calcification (calcium tracer OsteoSense visualization, aorta) (CKD mice; CKD mice, listed as EGFR inhibitor): dramatically reduced | survival rate (CKD mice; CKD mouse model): 100%

Reference: patent publication US11612601B1, “Targeting epidermal growth factor to treat vascular calcification” (THE FLORIDA INTERNATIONAL UNIVERSITY BOARD OF TRUSTEES, priority 2022, dated 2023)
